Patent US20250186446A1, “ORGANIC COMPOUNDS” (INTRA-CELLULAR THERAPIES, INC., priority 2022, published 2025)

How the values were obtained:
Format in all cases: in vivo, mouse
[1] = test system: E0771 murine breast cancer cells; assay: E0771 syngeneic breast cancer tumor growth in mice; details: E0771 tumors
Protocol: E0771 murine breast cancer cells are obtained from the American Type Culture Collection (ATCC) and maintained in DMEM medium containing 10% fetal bovine serum, 4 mM glutamine, 20 mM HEPES, and 1% penicillin/streptomycin. The cells are cultured in tissue culture flasks in a humidified incubator at 37° C., in an atmosphere of 5% CO2 and 95% air. The E0771 tumor cells used for implantation are harvested and re-suspended at a concentration of 2.5×10^6 cells/mL in cold PBS. Nine weeks old female C57Bl/6 mice (C57Bl/6J, Jackson Laboratory) are injected subcutaneously in the right flank with 0.5×10^6 cells in 0.2 mL cold PBS. 10 days later the mice have a palpable size tumor, and specified size to start treatments (around 100 mm^3). Mice are randomized in groups after the tumors are measured with a caliper in two dimensions to monitor size. Tumor size is calculated using the formula: Tumor Volume (mm^3)=(w^2×1)/2 where w=width and l=length, in mm. Tumors are measured twice per week for the duration of the study. Each mouse is euthanized as it reached a tumor volume endpoint of 1500 mm^3 or if they show any type of discomfort, whichever comes first.
[…] Compound A is synthesized at Intra-Cellular Therapies Inc. Compound A diets are used to treat mice. Compound A diet 900 ppm (diet supplements 900 mg of Compound A per kg to Picolab Rodent Diet 5053) is produced by Envigo (Madison WI). Mice are dosed 5 days a week with vehicle or Compound A.
(§1) The anti-PD-1 RMP1-14 (Lot No. 800121F12A) and isotype (Lot No. 749620N1) antibody are purchased from BioXCell. The stock solution is diluted in PBS to yield a dosing solution of 0.1 or 1 mg/mL, which delivered 1 or 10 mg/kg respectively in a dosing volume of 0.2 mL (10 mL/kg, for a […]). Mice are administered isotype or anti-PD-1 RMP1-14 intraperitoneally in 0.2 mL (10 mL/kg, for a […]) twice a week.
Mice are treated with Compound B alone, anti-PD-1 antibody alone, or the combination of Compound B and anti-PD-1 antibody. Compound B is synthesized at Intra-Cellular Therapies Inc. Compound B diets are used to treat mice. […]

[2] = test system: 4T1 murine breast cancer cells; assay: 4T1 syngeneic breast cancer tumor growth and survival in mice; details: 4T1 tumors
Protocol: (§2) 4T1 murine breast cancer cells are obtained from the American Type Culture Collection (ATCC) and maintained in RPMI medium containing 10% fetal bovine serum, 4 mM glutamine, and 1% penicillin/streptomycin. The cells were cultured in tissue culture flasks in a humidified incubator at 37° C., in an atmosphere of 5% CO2 and 95% air. The 4T1 tumor cells used for implantation are harvested and re-suspended at a concentration of 50×10^3 cells/mL in cold PBS. Nine weeks old female Balb/c mice (Balb/cJ, Jackson Laboratory) are injected subcutaneously in the right flank with 10×10^3 cells in 0.2 mL cold PBS. […] Mice are randomized in groups after the tumors are measured with a caliper in two dimensions to monitor size. Tumor size is calculated using the formula: Tumor Volume (mm^3)=(w^2×1)/2 where w=width and l=length, in mm. Tumors are measured twice per week for the duration of the study. Each mouse is euthanized as it reached a tumor volume endpoint of 1500 mm^3 or if they show any type of discomfort, whichever comes first.
as §1
as §2, with “(mm^3) (w^2×1)/2” for “(mm^3)=(w^2×1)/2”

[3] = LC/MS/MS quantification of drug exposure in E0771 tumor-bearing mice
Protocol: (§3) Tumor, liver, and feces samples are diluted in phosphate buffer and homogenized using ultrasonic processor. Plasma and homogenized tissue samples along with a set of standard and quality control samples are extracted by way of protein precipitation technique on Ostro plate (Waters) using 1% formic acid in acetonitrile spiked with internal standard. 2 μL of the filtered samples are injected using an autosampler and separated chromatographically using a Phenomenex, Synergi™, […], 50×3 mm, Polar-RP column, isocratic mobile phase combination of 0.1% formic acid in water and 0.1% formic acid in acetonitrile (40/60) with flow rate of 0.8 mL/min. The Sciex Qtrap 6500 mass spectrometer is used as the detector with positive electrospray in MRM ionization mode and an ion source temperature of 650° C. Quantification of Compound A is carried out using a calibration curve established with standards for the corresponding analyte concentration, retention time and mass profile.
Tumor, liver, and feces samples are diluted in phosphate buffer and homogenized using ultrasonic processor. […] Quantification of Compound B is carried out using a calibration curve established with standards for the corresponding analyte concentration, retention time and mass profile.

[4] = LC/MS/MS quantification of drug exposure in 4T1 tumor-bearing mice; details: in absence or presence of anti-PD1
Protocol: as §3

[5] = Example 2, Compound A 300 ppm or 900 ppm in diet, monotherapy or with anti-PD1 10 mg/kg

Row | exposure in plasma and tissues ([3]; Example 3, Compound B in diet, in absence or presence of anti-PD1) | exposure in plasma and tissues ([4]; Example 4, Compound B in diet) | SMILES | tumor volume ([1]; Example 1, C57Bl/6 mice, Compound A 900 ppm in diet, anti-PD1 10 mg/kg ip, alone or combined, day 3, 7, 10, 14, 17, vs isotype control) | tumor weight at terminal sacrifice ([1]; Example 1, Compound A 900 ppm in diet, anti-PD1 10 mg/kg, alone or combined, treatment day 17, vs isotype control) | survival of animals [2, 5] | tumor volume or weight relative to isotype (control) [2, 5] | drug exposures in plasma, tissues, and feces ([3]; Example 1, Compound A 900 ppm in diet, all groups receiving Compound A) | exposure in plasma and tissues ([4]; Example 2, Compound A in diet) | tumor volume or weight relative to isotype (control) and/or anti-PD1 alone ([1]; Example 3, Compound B 100, 300 or 900 ppm in diet, monotherapy or with anti-PD1 1 mg/kg) | tumor volume ([2]; Example 4, Compound B 100, 300 or 900 ppm in diet, anti-PD1 10 mg/kg, alone or combined, anti-PD1 alone: after day 5, vs isotype and/or anti-PD1 alone) | tumor weight at terminal sacrifice ([2]; Example 4, Compound B 100, 300 or 900 ppm in diet, anti-PD1 10 mg/kg, alone or combined, treatment day 14, vs isotype and/or anti-PD1 alone)
1 |  |  | CN1C(=O)c2c(nn(Cc3ccc(-c4cccc(F)n4)cc3)c2Nc2ccccc2)N2C1=N[C@@H]1CCC[C@@H]12 [Compound A] | Neither Compound A (900 ppm) treatment alone nor anti-PD-1 antibody (10 mg/kg) treatment alone shows a significant effect | Neither Compound A (900 ppm) treatment alone nor anti-PD-1 antibody (10 mg/kg) treatment alone shows a significant effect | improved | significantly reduce | comparable | comparable |  |  | 
2 | comparable | comparable | CC(=O)c1ccc(Cn2nc3c(c2Nc2ccc(F)cc2)C(=O)N(C)C2=NC(C)(C)CN23)cc1 [Compound B] |  |  |  |  |  |  | significantly reduces | significantly reduces | significantly reduces
